Source: patent US5441944A, “Substituted cyclodextrin sulfates and their uses as growth modulating agents” (The Trustees of the University of Pennsylvania, priority 1992, dated 1995)

Columns and labels:
[1] = tested on: tumor angiogenesis in hamster cheek pouches; conditions: Shubik et al. 1976, cited from earlier work
[2] = tested on: tumor angiogenesis in rabbit corneas; conditions: Gross et al. 1981; cited from earlier work
capillary growth; tumors = conditions: cited from earlier work
[3] = conductivity measurements in deionized water; assay type: physicochemical
Text: Conductivity is an accepted method for measuring the degree of ionic substitution and can be used to evidence the addition of a charged group, such as sulfate to a compound. […] Results of conducting measurements obtained in deionized water having a background conductivity of 2.5 (±0.2)×[…] mho/cm are shown in Table I.

[4] = dye staining analysis for high density sulfate saccharides (Alcian Blue, alumina TLC plate); assay type: physicochemical; conditions: 0.8 mg/ml sample, 1 μl spot; 0.5 mg/ml Alcian Blue, 0.25M acetate buffer, 5.6 pH
Experimental: Such complexing behavior has been utilized in histology, for selective staining to indicate high sulfur natural saccharides such as heparin (Snow et al., 1987, Human Pathology 18:506-510 and Dorling, 1969, Med. Lab. Techn. 26:124-130).
The following procedure was used to detect the presence of high density sulfate groups. An alumina TLC plate (Analtech, Newark, Del.) was spotted with a drop (1 μl) of a sample (0.8 mg/ml) to be tested. The spot or spots were dried for 10 minutes at about 60° C. Aqueous solution of 0.5 mg/ml of Alcian Blue (8GX, Aldrich), buffered with 0.25M acetate buffer at 5.6 pH is allowed to rise along the plate up to and past the test spot.

[5] = assay type: physicochemical; conditions: water
Experimental: The substituted CD sulfates useful in the present invention are highly hydrophilic and therefore very water soluble, with a solubility of at least 20 gm/100 ml in water at 0° C. Without wishing to be bound by theory, we believe that a highly hydrophilic character is important to allow interaction with cellular surfaces. We also believe a very high water solubility of the derivative is an important factor which cooperatively interacts with the inherent complexing ability of the CD structure to provide effective inhibition of angiogenesis with an exogenous steroid, as provided by this invention. We believe that the hydrophilic activity is roughly indicated by the affinity to water, as measured by water solubility. It is important to measure the same at 0° C. since at higher temperatures the most suitable derivatives have solubilities so high that it is difficult to obtain meaningful measurements.

| Compound | inhibition of tumor angiogenesis [2] | Conductivity [3] | further results |
| --- | --- | --- | --- |
| C[C@H]1C[C@@H]2[C@H]([C@@H](O)C[C@@]3(C)[C@H]2CC[C@]3(O)C(=O)CO)[C@@]2(C)C=CC(=O)C=C12 [6 α-methyl prednisolone] | – | – | tumor growth [1]: tumor growth was not stopped; suppression of tumor angiogenesis ([1]; under certain conditions): partially suppressed tumor angiogenesis |
| C[C@]12CCC(=O)C=C1CC[C@@H]1[C@@H]2C(=O)C[C@@]2(C)[C@H]1CC[C@]2(O)C(=O)CO [cortisone, 17 alpha, 21-dihydroxy-4-pregene-3,11,20-trione] | to a lesser extent cortisone, inhibited tumor angiogenesis | – | inhibition of capillary growth (capillary growth; tumors; cortisone by itself): does not have the ability to inhibit capillary growth; tumor growth (capillary growth; tumors; large amounts of cortisone, many other publications): continued growth of tumors |
| C[C@@H]1C[C@H]2[C@@H]3CCC4=CC(=O)C=C[C@]4(C)[C@@]3(F)[C@@H](O)C[C@]2(C)[C@@]1(O)C(=O)CO [dexamethasone] | inhibited tumor angiogenesis | – | – |
| C[C@]12CC[C@@H]3c4ccc(O)cc4CC[C@H]3[C@@H]1CC[C@@H]2O [estradiol] | ineffective | – | – |
| CC(=O)[C@@]1(O)CC[C@H]2[C@@H]3C[C@H](C)C4=CC(=O)CC[C@]4(C)[C@H]3CC[C@@]21C [medroxyprogestrone] | inhibited tumor angiogenesis | – | – |
| C[C@]12CC[C@H]3[C@@H](CCC4=CC(=O)CC[C@@]43C)[C@@H]1CC[C@@H]2O [testosterone] | ineffective | – | – |
| OC[C@H]1O[C@@H]2O[C@H]3[C@H](O)[C@@H](O)[C@@H](O[C@H]4[C@H](O)[C@@H](O)[C@@H](O[C@H]5[C@H](O)[C@@H](O)[C@@H](O[C@H]6[C@H](O)[C@@H](O)[C@@H](O[C@H]7[C@H](O)[C@@H](O)[C@@H](O[C@H]8[C@H](O)[C@@H](O)[C@@H](O[C@H]1[C@H](O)[C@H]2O)O[C@@H]8CO)O[C@@H]7CO)O[C@@H]6CO)O[C@@H]5CO)O[C@@H]4CO)O[C@@H]3CO [β-cyclodextrin] | – | immeasurable | – |
| n-tetrapropoxy-β-cyclodextrin [n-tetrapropoxy β-cyclodextrin] | – | immeasurable | – |
| n-tetrapropoxy-β-cyclodextrin sulfate | – | 4.5 10^-4 mho/cm per mg/ml | Alcian Blue stain [4]: generate an Alcian Blue stain; solubility [5]: 37 gm/100 ml H2O |
| β-cyclodextrin tetradecasulfate | – | – | Conductivity (average of 2 samples) ([3]; average of 2 samples): 4.6 10^-4 mho/cm per mg/ml; Alcian Blue stain [4]: generate an Alcian Blue stain |
